Results from publication PMC6597546, “Identification of a potent benzoxaborole drug candidate for treating cryptosporidiosis” (Nature Communications, 2019).
Several values for one entry are separate records, joined by “and”; a condition that tells them apart may be missing. Identical values can stand only once.

Test system: C. parvum (Bunch Grass Farms Iowa isolate)
Assay: Neonatal calf model of cryptosporidiosis
Format: in vivo
Design: key to Oocyst Shedding, individual calves / Oocyst Shedding: C. parvum abundance per gram of fecal dry matter (qPCR); key to Fecal Consistency Score, individual calves / Fecal Consistency Score: score 1 = normal, 3 = severely abnormal
Description: All calf efficacy studies were performed as previously described. These studies were approved by the University of Vermont Institutional animal Care and Use Committee, and conducted in compliance with the USDA-APHIS “Blue Book”, available at www.aphis.usda.gov/animal-welfare. Holstein bull calves were acquired at birth from Green Mountain Dairy (Sheldon, VT), given synthetic colostrum with 200 g of IgG (Land O’Lakes, Ardent Hills, MO) and bovine coronavirus and Escherichia coli antibodies (First Defense Bolus, Immuncell Corporation, Portland, ME) within 2 h of birth, and transported to UVM. Calves were group-housed initially, and infected at 24–48 h of age during an interruption in bottle feeding by oral administration of ∼5 × 10^7 C. parvum Iowa isolate oocysts (Bunch Grass Farms, Deary, ID) suspended in 10 mL of water. They were then moved to individual raised pens, and observed twice daily at feeding times for clinical signs, which were quantified according to a previously described standardized scoring rubric. Data on fecal consistency, dehydration and overall health were collected, in each case with a score of 1 being normal and 3 being severely abnormal (scoring rubric in Supplementary Table 2). Clinical microbiologic studies for adventitious infectious agents including Salmonella culture, aerobic bacterial culture with E. coli genotyping, rotavirus, and coronavirus testing were performed on all calves at the onset of diarrhea by the Cornell Animal Health Diagnostic Center (Ithaca, NY). Animals with severe diarrhea or other symptoms were supported aggressively, including with administration of oral electrolytes, intravenous fluids and flunixin meglumine (Banamine, Merck) as needed. […] Daily fecal samples were obtained from collections bins located under each pen. Fecal samples used for parasite quantification were dried at 90 °C until stable in weight, and C. parvum abundance per gram of fecal dry matter was measured using qPCR and the primers Cp18s forward and Cp18s reverse.

[1] = 5 mg per kg twice daily oral, days 2–8
[2] = 6.67 mg/kg every 8 h for three days, Calf 1, Day 0
[3] = 6.67 mg/kg every 8 h for three days, Calf 1, Day 1
[4] = 6.67 mg/kg every 8 h for three days, Calf 1, Day 2
[5] = 6.67 mg/kg every 8 h for three days, Calf 1, Day 3
[6] = 6.67 mg/kg every 8 h for three days, Calf 1, Day 4
[7] = 6.67 mg/kg every 8 h for three days, Calf 1, Day 5
[8] = 6.67 mg/kg every 8 h for three days, Calf 1, Day 6
[9] = 6.67 mg/kg every 8 h for three days, Calf 1, Day 7
[10] = 6.67 mg/kg every 8 h for three days, Calf 1, Day 8
[11] = 6.67 mg/kg every 8 h for three days, Calf 1, Day 9
[12] = 6.67 mg/kg every 8 h for three days, Calf 1, Day 10
[13] = 6.67 mg/kg every 8 h for three days, Calf 1, Day 11
[14] = 6.67 mg/kg every 8 h for three days, Calf 1, Day 12
[15] = 6.67 mg/kg every 8 h for three days, Calf 1, Day 13
[16] = 6.67 mg/kg every 8 h for three days, Calf 1, Day 14
[17] = 6.67 mg/kg every 8 h for three days, Calf 2, Day 0
[18] = 6.67 mg/kg every 8 h for three days, Calf 2, Day 1
[19] = 6.67 mg/kg every 8 h for three days, Calf 2, Day 2
[20] = 6.67 mg/kg every 8 h for three days, Calf 2, Day 3
[21] = 6.67 mg/kg every 8 h for three days, Calf 2, Day 4
[22] = 6.67 mg/kg every 8 h for three days, Calf 2, Day 5
[23] = 6.67 mg/kg every 8 h for three days, Calf 2, Day 6
[24] = 6.67 mg/kg every 8 h for three days, Calf 2, Day 7
[25] = 6.67 mg/kg every 8 h for three days, Calf 2, Day 8
[26] = 6.67 mg/kg every 8 h for three days, Calf 2, Day 9
[27] = 6.67 mg/kg every 8 h for three days, Calf 2, Day 10
[28] = 6.67 mg/kg every 8 h for three days, Calf 2, Day 11
[29] = 6.67 mg/kg every 8 h for three days, Calf 2, Day 12
[30] = 6.67 mg/kg every 8 h for three days, Calf 2, Day 13
[31] = 6.67 mg/kg every 8 h for three days, Calf 2, Day 14
[32] = 6.67 mg/kg every 8 h for three days, Calf 3, Day 0
[33] = 6.67 mg/kg every 8 h for three days, Calf 3, Day 1
[34] = 6.67 mg/kg every 8 h for three days, Calf 3, Day 2
[35] = 6.67 mg/kg every 8 h for three days, Calf 3, Day 3
[36] = 6.67 mg/kg every 8 h for three days, Calf 3, Day 4
[37] = 6.67 mg/kg every 8 h for three days, Calf 3, Day 5
[38] = 6.67 mg/kg every 8 h for three days, Calf 3, Day 6
[39] = 6.67 mg/kg every 8 h for three days, Calf 3, Day 7
[40] = 6.67 mg/kg every 8 h for three days, Calf 3, Day 8
[41] = 6.67 mg/kg every 8 h for three days, Calf 3, Day 9
[42] = 6.67 mg/kg every 8 h for three days, Calf 3, Day 10
[43] = 6.67 mg/kg every 8 h for three days, Calf 3, Day 11
[44] = 6.67 mg/kg every 8 h for three days, Calf 3, Day 12
[45] = 6.67 mg/kg every 8 h for three days, Calf 3, Day 13
[46] = 6.67 mg/kg every 8 h for three days, Calf 3, Day 14
[47] = 10 mg per kg twice daily for 7 days begun day 4
[48] = 10 mg/kg every 12 h with delayed start, Calf 1, Day 0
[49] = 10 mg/kg every 12 h with delayed start, Calf 1, Day 1

## CC1(C)OB(O)c2cc(NC(=O)c3ccc(-n4cccn4)cc3Cl)ccc21 [AN7973]
[1]
  effect on diarrhea: completely eliminated diarrhea
  effect on parasite shedding: curtailed parasite shedding
5 mg/kg BID
  AUC for the dehydration scores, individual animals: 0
  AUC for the diarrhea scores, individual animals: 0
5 mg/kg every 12 h on days 2–8, Day 0
  Oocyst Shedding, individual calves: 100
5 mg/kg every 12 h on days 2–8, Day 1
  Oocyst Shedding, individual calves: 100 and 583
5 mg/kg every 12 h on days 2–8, Day 2
  Oocyst Shedding, individual calves: 4179 and 2794
5 mg/kg every 12 h on days 2–8, Day 3
  Oocyst Shedding, individual calves: 46248 and 34331
5 mg/kg every 12 h on days 2–8, Day 4
  Oocyst Shedding, individual calves: 68492 and 55772
5 mg/kg every 12 h on days 2–8, Day 6
  Oocyst Shedding, individual calves: 265539 and 3628
5 mg/kg every 12 h on days 2–8, Day 7
  Oocyst Shedding, individual calves: 39302 and 2599
5 mg/kg every 12 h on days 2–8, Day 8
  Oocyst Shedding, individual calves: 43202 and 100
5 mg/kg every 12 h on days 2–8, Day 9
  Oocyst Shedding, individual calves: 146 and 100
5 mg/kg every 12 h on days 2–8, Day 10
  Oocyst Shedding, individual calves: 611 and 192
6.67 mg per kg three times per day for 3 days
  effect on diarrhea: eliminated diarrhea
6.67 mg per kg three times per day for 3 days, parasitological relapse followed
  reduction of the rate of parasite shedding during treatment: ~3 log
6.67 mg/kg TID (3 days)
  AUC for the dehydration scores, individual animals: 0 and 0.3333
  AUC for the diarrhea scores, individual animals: 0 and 1.333
[2]
  Fecal Consistency Score: 1
  Oocyst Shedding: 415
[3]
  Fecal Consistency Score: 1
  Oocyst Shedding: 1163
[4]
  Fecal Consistency Score: 1
  Oocyst Shedding: 989897
[5]
  Fecal Consistency Score: 1
  Oocyst Shedding: 285174
[6]
  Fecal Consistency Score: 1
  Oocyst Shedding: 27986
[7]
  Fecal Consistency Score: 1
  Oocyst Shedding: 2214
[8]
  Fecal Consistency Score: 1
  Oocyst Shedding: 10466
[9]
  Fecal Consistency Score: 1
  Oocyst Shedding: 16062
[10]
  Fecal Consistency Score: 1
  Oocyst Shedding: 525550
[11]
  Fecal Consistency Score: 1
  Oocyst Shedding: 522608
[12]
  Fecal Consistency Score: 1
  Oocyst Shedding: 905562
[13]
  Fecal Consistency Score: 1
  Oocyst Shedding: 8303500
[14]
  Fecal Consistency Score: 1
  Oocyst Shedding: 134619
[15]
  Fecal Consistency Score: 1
  Oocyst Shedding: 473515
[16]
  Fecal Consistency Score: 1
  Oocyst Shedding: 35244
[17]
  Fecal Consistency Score: 2
  Oocyst Shedding: 1
[18]
  Fecal Consistency Score: 2
  Oocyst Shedding: 16497
[19]
  Fecal Consistency Score: 1
  Oocyst Shedding: 909
[20]
  Fecal Consistency Score: 1
  Oocyst Shedding: 179330
[21]
  Fecal Consistency Score: 1
  Oocyst Shedding: 38982
[22]
  Fecal Consistency Score: 1
  Oocyst Shedding: 6563
[23]
  Fecal Consistency Score: 1
  Oocyst Shedding: 1
[24]
  Fecal Consistency Score: 1
  Oocyst Shedding: 1
[25]
  Fecal Consistency Score: 1
  Oocyst Shedding: 1
[26]
  Fecal Consistency Score: 1
  Oocyst Shedding: 1
[27]
  Fecal Consistency Score: 1
  Oocyst Shedding: 162
[28]
  Fecal Consistency Score: 1
  Oocyst Shedding: 82
[29]
  Fecal Consistency Score: 1
  Oocyst Shedding: 1213
[30]
  Fecal Consistency Score: 1
  Oocyst Shedding: 387
[31]
  Fecal Consistency Score: 1
  Oocyst Shedding: 188
[32]
  Fecal Consistency Score: 1
  Oocyst Shedding: 1089
[33]
  Fecal Consistency Score: 1
  Oocyst Shedding: 3597
[34]
  Fecal Consistency Score: 1.33
  Oocyst Shedding: 9022387
[35]
  Fecal Consistency Score: 1.67
  Oocyst Shedding: 2560722
[36]
  Fecal Consistency Score: 1.5
  Oocyst Shedding: 582683
[37]
  Fecal Consistency Score: 1
  Oocyst Shedding: 6828
[38]
  Fecal Consistency Score: 1
  Oocyst Shedding: 54223
[39]
  Fecal Consistency Score: 1
  Oocyst Shedding: 8461
[40]
  Fecal Consistency Score: 1
  Oocyst Shedding: 2785
[41]
  Fecal Consistency Score: 1
  Oocyst Shedding: 50511
[42]
  Fecal Consistency Score: 1
  Oocyst Shedding: 198125
[43]
  Fecal Consistency Score: 1.33
  Oocyst Shedding: 100223
[44]
  Fecal Consistency Score: 1
  Oocyst Shedding: 154951
[45]
  Fecal Consistency Score: 1
  Oocyst Shedding: 141133
[46]
  Fecal Consistency Score: 1.5
  Oocyst Shedding: 78359
10 mg per kg once daily oral, days 2–8, shedding resumed and persisted
  effect on parasite shedding and diarrhea: reduced peak parasite shedding and diarrhea
[47]
  parasite shedding: abolished by day 14
  reduction of total parasite shedding: greater than 1 log
10 mg per kg twice daily for 7 days begun day 4 (peak of symptoms)
  diarrhea cured faster than in controls: 3 days
10 mg/kg BID (delayed start)
  AUC for the dehydration scores, individual animals: 0.3333 and 0 and 0.8333
  AUC for the diarrhea scores, individual animals: 1.167 and 2.333 and 2.833
10 mg/kg QD
  AUC for the dehydration scores, individual animals: 0.3333 and 0.5
  AUC for the diarrhea scores, individual animals: 2.5 and 1.833 and 2.167
[48]
  Fecal Consistency Score: 1.67
  Oocyst Shedding: 1
[49]
  Fecal Consistency Score: 2
  Oocyst Shedding: 735
